The target in test [1] is T1, Rba. sphaeroides reaction centre (QB site) (Cereibacter sphaeroides, UniProt P0C0Y8).
T1 construct: made in house; host or cells: Rba. sphaeroides strain DD13 carrying plasmid pvLMt (written pvLMtX)
In words: Inhibition of photocurrent generation in photoelectrochemical cell with reaction centres adhered to a gold electrode. It counts as biochemical, Rhodobacter sphaeroides. Particulars: for LOD (IC5): calculated from IC50 and Hill coefficient, 5% change in current; for inhibition of the QB site / photocurrent (in words): present study, detergent-free buffer. The protocol:
To adhere reaction centres the cleaned gold electrode was immersed in 25 µL of a 1 mg mL^−1 (approximately 10 µM) solution of purified reaction centres in 20 mM Tris (pH 8.0)/0.1% LDAO for 1 h at 4 °C in dark. Unbound reaction centres were removed by dipping the electrode in ice-cold 20 mM Tris (pH 8.0) three times. The coated gold electrode was assembled into a glass-bottomed cell along with a Pt counter electrode (Radiometer Analytical), and an Ag/AgCl reference electrode (Radiometer Analytical). The cell was filled with 1 ml of 20 mM Tris (pH 8.0) containing 20 µM horse heart cyt c and 30 µM UQ0 (both from Sigma-Aldrich) and placed above a shutter-controlled 1.5 W 880 nm LED light source (Roithner LaserTechnik), resulting in an illumination intensity of 46 mW cm^−2 at the working electrode. A potential of −100 mV vs SCE was applied and photocurrents measured by chronoamperometry using the Autolab PGSTAT128N potentiostat (Metrohm) controlled by the PC running Autolab Nova 1.4 software (Metrohm).
The cell was incubated for 1 min before measurement of a 30 s photocurrent. All herbicides and inhibitors were purchased from Sigma-Aldrich, and their structures are shown in Supplementary Fig. 2.
For titrations, the photocurrent from a freshly prepared cell was measured for 30 s before and after the addition of increasing concentrations of atrazine, terbutryn or stigmatellin prepared in 20 mM Tris (pH 8.0)/20 µM cyt c/30 µM UQ0. After each addition the cell was equilibrated for 60 s before measuring the photocurrent, which was sufficient to allow stabilisation of the applied current required to maintain a potential of −100 mV vs SCE. Maximal photocurrents were plotted as a function of inhibitor concentration and fitted with a logistic function to determine the IC50 and IC5 (see text). These IC50 values were used to estimate Ki using the Cheng–Prusoff equation (see text).
To quantify the sensitivity of photocurrent generation to atrazine, terbutryn and stigmatellin the maximal photocurrent after a standard period of 30 s was recorded as a function of herbicide or inhibitor concentration. The titration data, expressed as the percentage of the maximum current in the absence of the herbicide/inhibitor, were fitted to a logistic function (Eq. (1)) to determine the IC50.(1) Y=Min+Max−Min/1+([Inhibitor]/IC50)^−HillCoefficient where Max and Min are maximal and minimal photocurrents, respectively. […] Based on this, the LOD can be represented by an IC5 value that can be calculated from the parameters of the IC50 fit (Eq. (2)).
To compare the sensitivity of our photochemical cell device to previous studies employing Rba. sphaeroides reaction centres, the IC50 values were converted to values for the binding affinity of the inhibitor (Ki) using the Cheng–Prusoff equation (Eq. (3)) ([Cheng and Prusoff, 1973])(3) Ki=IC50/1+([S]/Km) where [S] is the substrate concentration and Km is the measured Michaelis constant for UQ0 (see above).

Test [2] has as its target T1, Rba. sphaeroides reaction centre (QB site). In words: Kinetics of charge recombination in photo-oxidised reaction centres in solution (absorbance at 865 nm). Particulars: for effect on recombination rate (in words): 500 µM agent; for τ1 / A1 / τ2 / A2: 500 µM inhibitor; for τ1 / τ2: 13.2 µM reaction centres, 30 µM UQ0, ± standard error; for A1: amplitude of τ1 component; for A2: amplitude of τ2 component. The class given is biochemical, Rhodobacter sphaeroides. The protocol: Analysis of the effects of herbicides or inhibitors on the kinetics of charge recombination was performed using a Cary60 spectrophotometer connected to an external 1 cm cuvette holder (Ocean Optics) via a fibre-optic coupler. A white light pulse of 50 ms duration was applied to the sample cuvette at 90° to the pulsed measuring beam by an HL-2000-FHSA white light source with a fast shutter (Ocean Optics) delivering approximately 25 W m^−2 illumination at the cuvette surface. The actinic pulse was triggered by a TGP110 pulse generator (Thurlby Thandur Instruments). […] Test samples were loaded into to a 3×3 mm fluorescence cuvette (Hellma) aligned to the measuring and excitation pulses and absorbance at 865 nm was measured for 20 s after delivery of the light pulse, with a further period of at least 60 s to allow full dark adaptation of the reaction centres before re-excitation. A set of eight kinetic traces were recorded for each sample, averaged, and fitted using a single or double exponential function in Origin 8 (OriginLab).
To ensure this pattern of results was not specific to the conditions within the photoelectrochemical cell, the ability of these inhibitors to replace ubiquinone at the QB site was also tested by measuring the rate of recombination from QA and QB to the primary donor bacteriochlorophyll (P) after excitation with a pulse of white light (see Section 2). As outlined in Section 1, recombination of P^+QA^− or P^+QB^− occurs with lifetimes of ~100 ms and ~1 s, respectively. As the QB quinone is partially lost during purification of reaction centres, assays were conducted in the presence of 30 µM UQ0 to reconstitute QB, the reaction centre concentration being 13.2 µM.

The target in test [3] is QB site in the Rba. sphaeroides reaction centre. Further details: method as in Stein et al., 1984. The following applies: 1 μM reaction centres, 10 mM Tris (pH 8.0), 100 mM NaCl, 0.06% TX-100, 20 μM UQ10; ref Stein et al., 1984; cited from earlier work.
In a further test the test system is PSII. The following applies: cited from earlier work.
For a further test, the system named is spinach thylakoids. On the set-up: method as in Touloupakis et al., 2005. Particulars: albumin glutaraldehyde matrix; ref Touloupakis et al., 2005; cited from earlier work.
For test [4], the target named is T2, Rba. sphaeroides reaction centre quinone reductase (QB) site (Cereibacter sphaeroides, UniProt P0C0Y8).
T2 construct: made in house; host or cells: Rba. sphaeroides strain DD13 carrying plasmid pvLMt (written pvLMtX)
In words: Determination of the Km(apparent) for UQ0 from photocurrent density. The class given is biochemical, Rhodobacter sphaeroides. Particulars: detergent-free buffer, Michaelis–Menten fit. The protocol:
Photovoltaic cells were assembled as described above but with the omission of UQ0. Photocurrents of 30 s duration were measured in the absence of UQ0 and after the addition of increasing amounts of UQ0. Maximal currents from three titrations were averaged, plotted as a function of UQ0 concentration then fitted with the Michaelis–Menten equation using Origin 8.0 (OriginLab).
To optimise the concentration of the substrate for the reaction centre quinone reductase (QB) site in the cell the Km^(apparent) for UQ0 was determined by measuring the maximum photocurrent density during a 30 s period of illumination as a function of increasing concentrations of UQ0. A concentration-dependent increase in the photocurrent amplitude was obtained, which was fitted with the Michaelis–Menten equation (Supplementary Fig. 3). […] This Km^(apparent) for UQ0 is, to our knowledge, the strongest reported to date. […] As the present assay was conducted in detergent-free buffer, the stronger Km^(apparent) obtained is consistent with this trend.

The target in another test is reaction centre QB site. Further details: method as in earlier work. Particulars: ref McComb et al., 1990, Paddock et al., 1988, Gerencsér and Maróti, 2008, cited from earlier work.
The subject of test [5] is Blc. viridis reaction centres (tyrosine to phenylalanine mutant near QB pocket). On the set-up: method as in Sinning et al., 1989. The following applies: ref Sinning et al., 1989, cited from earlier work.
The test system of test [6] is Blc. viridis reaction centre. On the set-up: method as in Sinning et al., 1989. Particulars: ref Sinning et al., 1989; cited from earlier work.
[7] abbreviates: PSII complexes in glutaraldehyde–BSA matrix on graphite electrode, ref Koblížek et al., 2002.
Where [8] appears, read: PSII reaction centres or BBY particles on screen printed gold electrodes, ref Bhalla and Zazubovich, 2011.
[9] abbreviates: mutant vs normal reaction centre.

Structures are written as SMILES. Values joined by “and” are separate entries in the source; they are usually repeats but may differ in a detail not shown here. Equal values may be shown once. Read-outs that look alike come from different tables or passages of the source.

As usually defined, the IC50 is the point on the concentration scale where inhibition reaches its midpoint. The term Ki denotes the dissociation constant of the complex between target and ligand, obtained from inhibition or displacement. By Kd is commonly meant the free concentration of one partner at which half of the binding sites on the other are occupied at equilibrium, for simple one-to-one binding. Broadly, the Km is the substrate concentration at which the rate is half of its maximum.

For the compound `CCNc1nc(Cl)nc(NC(C)C)n1` [atrazine, N^2-ethyl-6-chloro-N^4-isopropyl-1,3,5-triazine-2,4-diamine], in test [1], the IC50 came out at 2100 ± 100 nM, the Ki is 1200 nM, the “LOD (IC5)” value is given as about 50 nM and the “inhibition of the QB site / photocurrent (in words)” value is listed as “strong inhibition”. Moreover, in test [1] (100 µM agent), the photocurrent remaining entry is “less than 10%”. The “LOD (IC5)” value in [1] (listed as Atrazine) is 49 nM. Also, in test [2], the “effect on recombination rate (in words)” value is recorded as “accelerated significantly”, the τ1 was 0.212 ± 0.004 s and the A1 amounted to 100%. Also, the Kd in test [3] was 120000 nM. In the test with PSII (setting [7]), the IC50 is 90 nM and the LOD is recorded as 2 nM. Moreover, the IC50 with PSII (PSII on screen printed Pt electrode in glutaraldehyde–BSA–glycerol matrix, ref Masojídek et al., 2011) is 890 nM. Moreover, in the test with PSII (setting [8]), the IC50 is 49 nM and the LOD was 1.15 nM. In the test on spinach thylakoids, the IC50 was 100 nM and the LOD is given as 12.7 nM.

In the case of `COC1=C(OC)C(=O)C(C)=CC1=O` [UQ0, ubiquinone-0], the Km in test [4] stood at 42 ± 2 µM. In addition, the Kd at reaction centre QB site (0.0025% LDAO) is 175000 nM and 90000 nM; on reaction centre QB site (0.06% LDAO) it was 480000 nM; at reaction centre QB site (0.1% LDAO), 600000 nM.

`COc1cc(CNC(=O)CCCC/C=C/C(C)C)ccc1O` [capsaicin]: the photocurrent remaining result in [1] (500 µM agent) was “greater than 80%”. In addition, in [2], the “effect on recombination rate (in words)” value is given as “unaffected”, the τ1 came to 0.152 ± 0.011 s, the τ2 amounted to 1.19 ± 0.03 s and the A1 came to 41.0 ± 3.8%. For the same compound, the A2 in [2] turned out to be 59.0 ± 2.2%.

As to `N#Cc1cc(I)c(O)c(I)c1` [ioxynil], in test [5] (setting [9]), the “increase in sensitivity to inhibitor in mutant” value is given as 100 fold. Also, the “inhibitor grouping (in words)” value in [6] was “very weak inhibitors”.

As to `C/C=C(C)/C=C/C=C/[C@H](OC)[C@@H](C)[C@@H](OC)[C@@H](C)CCc1oc2c(O)c(OC)cc(OC)c2c(=O)c1C` [stigmatellin], in test [1], half-maximal inhibition (IC50) required 280 ± 60 nM, the Ki worked out at 165 nM, the “LOD (IC5)” value was 8.3 nM and the “inhibition of the QB site / photocurrent (in words)” value was “strong inhibition”. Also, the photocurrent remaining entry in test [1] (100 µM agent) is “less than 10%”. For the same compound, the “LOD (IC5)” value in test [1] (listed as Stigmatellin) is recorded as 10 nM. Moreover, in test [2], the “effect on recombination rate (in words)” value is “accelerated significantly”, the τ1 worked out at 0.095 ± 0.003 s and the A1 is given as 100%.

On to `N#Cc1cc(Br)c(O)c(Br)c1` [bromoxynil], for which, in test [1] (500 µM agent), the photocurrent remaining result is reported as “greater than 80%”. For the same compound, the “inhibition of the QB site / photocurrent (in words)” value in test [1] is listed as “ineffective”. In addition, in [2], the “effect on recombination rate (in words)” value is listed as “unaffected”, the τ1 was determined as 0.038 ± 0.009 s, the τ2 is recorded as 1.14 ± 0.04 s and the A1 is on record as 36.1 ± 12.4%. The A2 in test [2] was 63.9 ± 2.2%. Moreover, in test [3], the Kd is 30000 nM.

Take `CN(C)C(=O)Nc1ccc(Cl)c(Cl)c1` [DCMU, 3-(3,4-dichlorophenyl)-1,1-dimethylurea]: in test [2], the “effect on recombination rate (in words)” value was “unaffected”, the τ1 is 0.179 ± 0.012 s, the τ2 is recorded as 1.18 ± 0.04 s and the A1 was found to be 51.7 ± 3.7%. Moreover, the A2 in [2] was 48.3 ± 3.7%. In [3], the Kd is over 800000 nM. In test [5] (single tyrosine to phenylalanine change), the “increase in affinity in mutant” value is given as “at least four orders of magnitude”. Also, the “inhibitor grouping (in words)” value in test [6] is given as “very weak inhibitors”.

Take `CCNc1nc(NC(C)(C)C)nc(SC)n1` [terbutryn]: in [1], the IC50 is 208 ± 10 nM, the Ki stood at 123 nM, the “LOD (IC5)” value is reported as 8.3 nM and the “inhibition of the QB site / photocurrent (in words)” value is on record as “strong inhibition”. Further, the photocurrent remaining result in test [1] (100 µM agent) is listed as “less than 10%”. In [2], the “effect on recombination rate (in words)” value is reported as “accelerated significantly”, the τ1 is 0.152 ± 0.004 s and the A1 turned out to be 100%. For the same compound, in [3], the equilibrium dissociation constant (Kd) was 3000 nM. Also, the “decrease in sensitivity to inhibitor in mutant” value in [5] (setting [9]) is 660 fold.

Regarding `CC(C)N1C(=O)c2ccccc2NS1(=O)=O` [bentazon], the photocurrent remaining entry in test [1] (500 µM agent) was “greater than 80%”. Also, the “inhibition of the QB site / photocurrent (in words)” value in test [1] is on record as “weak inhibition”. Further, in [2], the “effect on recombination rate (in words)” value is “unaffected”, the τ1 was determined as 0.129 ± 0.015 s, the τ2 amounted to 1.09 ± 0.03 s and the A1 is on record as 39.0 ± 5.8%. Further, the A2 in [2] is recorded as 61.0 ± 3.0%.

The values above are taken from paper PMC4009402, “Evaluation of a biohybrid photoelectrochemical cell employing the purple bacterial reaction centre as a biosensor for herbicides” (Biosensors & Bioelectronics, 2014).
